Experimental data reported in patent US20230241041A1, “LURBINECTEDIN IN THE TREATMENT OF MALIGNANT MESOTHELIOMA” (PHARMA MAR, S.A., priority 2019, published 2023).

Experiments:
[1] = Phase II trial of lurbinectedin monotherapy: adverse events (NCI CTCAE v4.03) and tolerability; type: in vivo
Description: (§1) The primary endpoint was progression-free survival at 12 weeks (PFS12wks), defined as the absence of progression or death due to any cause during the first 12 weeks (±2 weeks) after registration. Secondary endpoints included progression-free survival (PFS), defined as the time from registration until radiologic progression or death due to any cause, whichever occurs first; overall survival (OS), defined as the time from registration until death due to any cause; objective response rate (ORR), defined as the proportion of patients who achieved complete (CR) or partial remission (PR) during the trial treatment; disease control rate (DCR) defined as the sum of CR, PR and stable disease (SD) at least for 12 weeks (SD≥12wks); duration of disease control, defined as the time from registration to progression or death due to any cause whichever occurs first for patients who had CR, PR or SD≥12wks; and adverse events (AE). All AEs were assessed according to NCI CTCAE v4.03. Patients lost to follow-up were censored at the last date they were known to be alive.
[…] Standard antiemetic prophylaxis (corticosteroids or serotonin (5-HT3) antagonists) was administered prior to chemotherapy. […] In case of third re-emergence of Grade 3-4 toxicity treatment was permanently discontinued. Specifically for leucopenia Grade 3-4 and/or febrile neutropenia there was mandatory secondary G-CSF prophylaxis together with dose reduction by one level.
(§2) Patients were followed clinically and with laboratory tests at time of chemotherapy administration and additionally with contrast enhanced CT- or PET/CT scans every 6 weeks. […] In case of treatment discontinuation for any reason, adverse events were reported for 30 days after last treatment application. For those cases where lurbinectedin was stopped without manifest progression radiology scans were performed every 8 weeks during the follow-up period otherwise patients were followed-up via telephone every 12 weeks for survival status.

[2] = system: progressive malignant pleural mesothelioma (MPM); experiment: Phase II single-arm, multi-centric trial of lurbinectedin monotherapy: efficacy (PFS, OS, response); type: in vivo, human
Protocol: In order to evaluate the efficacy of lurbinectedin in the treatment of progressive malignant pleural mesothelioma (MPM), a Phase II single-arm, multi-centric, international trial was performed.
as §1
This trial was conducted in 6 centers in Switzerland and 3 in Italy. Subjects enrolled in this clinical trial were adult (age ≥ 18 years) patients having histologically or cytologically confirmed MPM, an Eastern Cooperative Oncology Group (ECOG) status of 0-1 and had progressed on or after one line of platinum-pemetrexed chemotherapy without being amenable to local treatment. Further inclusion criteria required an adequate hepatic, renal and bone marrow function (absolute neutrophil count ≥ 2 × 10^9 /L, platelet count ≥ 100 × 10^9 /L; aspartate aminotransferase and alanine aminotransferase ≤ 3.0 × ULN; creatinine clearance ≥ 30 mL/min/1.73).
Eligible patients could additionally have received one prior line of immunotherapy, but more than one lines of chemotherapy, including pemetrexed rechallenge, were not allowed. Further exclusion criteria covered known brain metastases or leptomeningeal disease, history of other hematologic or primary solid tumors within five years prior to registration (with the exception of curatively treated basal or squamous cell carcinoma of the skin, properly treated in situ malignant melanoma, in situ carcinoma of the uterine cervix or pT1-2 prostate cancer with Gleason score ≤6), concomitant use of anti-cancer surgery or radiotherapy (except for local pain control or pleurodesis) and adverse events Grade ≥2 derived from previous treatment.
Lurbinectedin was given every 3 weeks at a dose of 3.2 mg/m^2 as a 1-hour intravenous infusion through peripheral or central lines. Standard antiemetic prophylaxis (corticosteroids or serotonin (5-HT3) antagonists) was administered prior to chemotherapy. […] In case of third re-emergence of Grade 3-4 toxicity treatment was permanently discontinued. Specifically for leucopenia Grade 3-4 and/or febrile neutropenia there was mandatory secondary G-CSF prophylaxis together with dose reduction by one level.
as §2
A Simon two-stage design was used as presented by Simon R. (Control Clin Trials. 1989 Mar;10(1):1-10). We had set our null-hypothesis p0 at PFS12wks ≤35%, translated to a median PFS of ≤ 2 months. […]

Molecule: COc1ccc2[nH]c3c(c2c1)CCN[C@]31CS[C@@H]2c3c(OC(C)=O)c(C)c4c(c3[C@H](COC1=O)N1[C@@H]2[C@H]2c3c(cc(C)c(OC)c3O)C[C@@H]([C@@H]1O)N2C)OCO4 (stereo in doubt) [lurbinectedin]
- AEs ([1]; Grade 5, N = 42): 0 (0.0%) n (%)
- Lurbinectedin-related AEs ([1]; Grade 5, N = 42): 0.0 (0.0%) n (%)
- treatment-related death ([1]; N=42): no treatment-related death
- Abdominal pain, lurbinectedin-related AE ([1]; human, in vivo): 1 (2.4%) n (%)
- Alkaline phosphatase increased, lurbinectedin-related AE ([1]; human, in vivo): 1 (2.4%) n (%)
- Aspartate aminotransferase increased, lurbinectedin-related AE ([1]; human, in vivo): 2 (4.8%) n (%)
- Blood bilirubin increased, lurbinectedin-related AE ([1]; human, in vivo): 3 (7.1%) n (%)
- Cholangitis, lurbinectedin-related AE ([1]; human, in vivo): 1 (2.4%) n (%)
- Confusion, lurbinectedin-related AE ([1]; human, in vivo): 1 (2.4%) n (%)
- Cough, lurbinectedin-related AE ([1]; human, in vivo): 1 (2.4%) n (%)
- Creatinine increased, lurbinectedin-related AE ([1]; human, in vivo): 1 (2.4%) n (%)
- Diarrhea, lurbinectedin-related AE ([1]; human, in vivo): 3 (7.1%) n (%)
- Dizziness, lurbinectedin-related AE ([1]; human, in vivo): 2 (4.8%) n (%)
- Dry skin, lurbinectedin-related AE ([1]; human, in vivo): 2 (4.8%) n (%)
- Dysgeusia, lurbinectedin-related AE ([1]; human, in vivo): 1 (2.4%) n (%)
- Dyspepsia, lurbinectedin-related AE ([1]; human, in vivo): 1 (2.4%) n (%)
- Dysphagia, lurbinectedin-related AE ([1]; human, in vivo): 1 (2.4%) n (%)
- Edema limbs, lurbinectedin-related AE ([1]; human, in vivo): 1 (2.4%) n (%)
- Febrile neutropenia, lurbinectedin-related AE ([1]; human, in vivo): 4 (9.5%) n (%)
- Flu like symptoms, lurbinectedin-related AE ([1]; human, in vivo): 1 (2.4%) n (%)
- Halitosis, lurbinectedin-related AE ([1]; human, in vivo): 1 (2.4%) n (%)
- Headache, lurbinectedin-related AE ([1]; human, in vivo): 1 (2.4%) n (%)
- Hypertension, lurbinectedin-related AE ([1]; human, in vivo): 1 (2.4%) n (%)
- Hypomagnesemia, lurbinectedin-related AE ([1]; human, in vivo): 5 (11.9%) n (%)
- Infection of unknown origin, lurbinectedin-related AE ([1]; human, in vivo): 1 (2.4%) n (%)
- Infections with unknown origine, lurbinectedin-related AE ([1]; human, in vivo): 1 (2.4%) n (%)
- Insomnia, lurbinectedin-related AE ([1]; human, in vivo): 1 (2.4%) n (%)
- Lung infection, lurbinectedin-related AE ([1]; human, in vivo): 1 (2.4%) n (%)
- Memory impairment, lurbinectedin-related AE ([1]; human, in vivo): 1 (2.4%) n (%)
- Pancytopenia, lurbinectedin-related AE ([1]; human, in vivo): 1 (2.4%) n (%)
- Productive cough, lurbinectedin-related AE ([1]; human, in vivo): 1 (2.4%) n (%)
- Skin infection, lurbinectedin-related AE ([1]; human, in vivo): 1 (2.4%) n (%)
- Superficial thrombophlebitis, lurbinectedin-related AE ([1]; human, in vivo): 1 (2.4%) n (%)
- Urea increased, lurbinectedin-related AE ([1]; human, in vivo): 1 (2.4%) n (%)
- Vertigo, lurbinectedin-related AE ([1]; human, in vivo): 1 (2.4%) n (%)
- Watering eyes, lurbinectedin-related AE ([1]; human, in vivo): 1 (2.4%) n (%)
- Weight loss, lurbinectedin-related AE ([1]; human, in vivo): 2 (4.8%) n (%)
- White blood cell decreased, lurbinectedin-related AE ([1]; human, in vivo): 3 (7.1%) n (%)
- all other Grade 3-4 lurbinectedin-related toxicities ([1]; human, in vivo): < 10%
- dose reductions for which AEs were the reason ([1]; human, in vivo): 91.7%
- fatigue, lurbinectedin-related AE Grade 3-4 ([1]; human, in vivo): 16.7%
- febrile neutropenia ([1]; human, in vivo): 9.5%
- herpes zoster, lurbinectedin-related AE ([1]; human, in vivo): 1 (2.4%) n (%)
- neutropenia, lurbinectedin-related AE Grade 3-4 ([1]; human, in vivo): 23.8%
- patients showing no lurbinectedin-related AEs ([1]; human, in vivo): AE: adverse event; ^1: 4 patients (9.5%) showed no lurbinectedin-related AEs
- patients with at least one adverse event (AE) of any grade ([1]; human, in vivo): 100%
- patients with at least one dose reduction ([1]; human, in vivo): 28.6%
- patients with lurbinectedin-related AEs Grade 3-4 ([1]; human, in vivo): 47.6%
- patients with treatment delayed at least once ([1]; human, in vivo): 50%
- patients with treatment related AEs (any grade) ([1]; human, in vivo): 90.5%
- patients with two dose reductions ([1]; human, in vivo): 2/42
- treatment delay caused by AEs ([1]; human, in vivo): 26.2%
- Mucositis oral, lurbinectedin-related AE ([1]; human, in vivo, po): 1 (2.4%) n (%)
- treatment discontinuation due to toxicity ([1]; in vivo): no treatment discontinuation due to toxicity
- patients with disease control lasting for 8 months or longer ([2]; 6/22 patients): 27.3%
- median OS ([2]; <6 months progression-free interval on prior pemetrexed): 8.8 months
- median OS ([2]; >=6 months progression-free interval on prior pemetrexed): 13.3 months
- PFS12wks ([2]; additional prior immunotherapy): 70%
- median OS ([2]; additional prior immunotherapy): 10.4 months
- median PFS ([2]; additional prior immunotherapy): 3.2 months
- DCR ([2]; all 42 patients): 52.4%
- ORR ([2]; all 42 patients): 4.8%
- complete remission (CR) ([2]; all 42 patients): One
- partial remission (PR) ([2]; all 42 patients): one
- stable disease ([2]; all 42 patients): 20 patients
- PFS12wks (primary endpoint) reached ([2]; all patients, 22/42, 90% CI 38.7-63.5, p=0.015): 52.4%
- PFS12wks, Kaplan-Meier method at 12 weeks ([2]; all patients, 90% CI 49.7-74.4): 63.5%
- median PFS ([2]; all patients, 95% CI 2.6-5.5, median follow-up 14.9 months): 4.1 months
- 9 months PFS% ([2]; all patients, 95% CI 4.7-24.9): 12.7%
- median OS ([2]; all patients, 95% CI 8.8-14.7): 11.1 months
- 6 months PFS% ([2]; all patients, 95% CI 17.1-44.9): 30.5%
- 12 months OS ([2]; all patients, 95% CI 28.1-60.3): 44.9%
- 3 months PFS% ([2]; all patients, 95% CI 41.8-71.7): 58.4%
- 6 months OS ([2]; all patients, 95% CI 57.7-84.6): 73.8%
- PFS12wks ([2]; epithelioid histology): 63.6%
- median OS ([2]; epithelioid histology): 12.4 months
- median PFS ([2]; epithelioid histology): 4.1 months
- PFS12wks reached (interim analysis) ([2]; first 21 patients, Simon 2-stage, 11 patients): 52.4%
- PFS12wks ([2]; non-epithelioid histology): 62.5%
- median OS ([2]; non-epithelioid histology): 10.0 months
- median PFS ([2]; non-epithelioid histology): 3.7 months
- patients who had died at the time of analyses ([2]; of 42, progression 23, viral pneumonitis 1, suicide 1, heart failure 1): 26 patients
- median duration of disease control ([2]; patients with CR, PR or SD>=12wks, 95% CI 5.2-7.4): 6.6 months
- PFS12wks ([2]; prior chemotherapy alone): 61.4%
- median OS ([2]; prior chemotherapy alone): 11.9 months
- median PFS ([2]; prior chemotherapy alone): 4.1 months
- median PFS ([2]; progressed on previous platinum-pemetrexed in >=6 months): 4.3 months
- PFS12wks ([2]; progressed on previous platinum-pemetrexed in >=6 months (28 patients)): 67.9%
- median PFS ([2]; progressed on previous platinum-pemetrexed within <6 months): 3.0 months
- PFS12wks ([2]; progressed on previous platinum-pemetrexed within <6 months (14 patients)): 53.8%

B1: G-CSF: granulocyte colony-stimulating factor, given as prophylaxis for leucopenia/febrile neutropenia (protein, UniProt P09919 31-207, looked up)
Granulocyte …: TPLGPASSLPQSFLLKCLEQVRKIQGDGAALQEKLVSECATYKLCHPEELVLLGHSLGIPWAPLSSCPSQALQLAGCLSQLHSGLFLYQGLLQALEGISPELGPTLDTLQLDVADFATTIWQQMEELGMAPALQPTQGAMPAFASAFQRRAGGVLVASHLQSFLEVSYRVLRHLAQP
- incidence of grade 3-4 neutropenia ([1]; G-CSF given in patients on lurbinectedin): diminished
